Test results taken from publication PMC8958501, “Hypothesis-Driven, Structure-Based Design in Photopharmacology: The Case of eDHFR Inhibitors” (Journal of Medicinal Chemistry, 2022).
Like-named read-outs stand apart in the source and are kept apart here.

Assays:
[1] = Thermal cis-to-trans isomerization (thermal half-life of the metastable cis isomer); format: physicochemical; conditions: thermal cis-to-trans isomerization, DMSO, 25 °C, 20 µM
Protocol: UV–vis absorption spectra were recorded on an Agilent 8453 UV–vis Spectrophotometer. Photochemical isomerization (photoswitching) was achieved by irradiation from the side in a fluorescence quartz cuvette (width = 1.0 cm) using a custom-built (Prizmatix/Mountain Photonics) multiwavelength fiber coupled LED system (FC6-LED-WL) including the following LEDs: 365A, 390B, 420Z, 445B, 535R, 630CA. A detailed description of the setup was published by us recently.[84] Alternatively, the samples were irradiated at 340 nm using the LOT Quantum design setup with 300 W Xe-Arc lamp, using the Thorlabs FB340-10 Bandpass filter. A Quantum Northwest TC1 temperature controller was used to maintain the temperature at 25 °C during photochemical studies. To analyze the fatigue resistance of the compounds, repeated irradiation cycles were performed using alternating wavelengths. The decrease and increase of the π–π* transition band was followed by UV–vis spectroscopy (Agilent 8453) at 25 °C while stirring. To determine the thermal lifetime for the metastable cis isomer, samples were irradiated with the custom-built setup until photostationary state (PSS) was reached. Then, the cuvettes were placed in a JASCO V750 spectrophotometer with a PTC 424S/15 temperature controller, and the recovery of the π–π* transition was followed while stirring at 25 °C (for solutions in DMSO and eDHFR assay buffer) or 37 °C (for solutions in 10 mM Tris-HCl buffer pH 7.0). The data were fitted using a first-order exponential function in OriginPro 2018. For the PSD determination by ^1H NMR spectroscopy, 0.5 mL of a 2 mM solution of the respective compound in DMSO-d6 was thermally equilibrated by briefly (∼10 s) heating the sample with a heat gun. Subsequently, the sample was irradiated in a glass NMR tube with a 365 nm hand-held lamp (Spectroline ENB-280C) or the LEDs of the custom-built setup. Detailed data are reported in the SI.

E. coli CS1562 = assay: Antibacterial activity assay (MIC, bacterial growth curves); format: cell-based, Escherichia coli; conditions: for MIC: Escherichia coli; for light-induced difference in antibacterial activity (dark MIC vs irradiated MIC): irradiation with λ1 = 365 nm
Protocol: A culture of E. coli CS1562 was grown overnight in LB medium (10 g/L tryptone, 5 g/L yeast extract, 5 g/L NaCl) containing tetracycline (10 μg/mL) at 37 °C. The OD600 was measured, and the culture was diluted to 0.002 OD600 in LB medium. Series dilutions of the compounds were prepared in DMSO and diluted 25 times in sterile LB medium in a black sterile Eppendorf tube. […] Subsequently, the dark samples were added to the 96-well plate (100 μL, triplicates). Lastly, the LB medium containing E. coli CS1562 at 0.002 OD was added to every well (100 μL). The cells were grown overnight at 37 °C in a plate reader (Synergy H1, Biotek), and the OD600 was measured every 10 min with a 10 s shaking step before each measurement. The OD600 curves were background-corrected by subtracting the value at t = 0. […] Detailed data are reported in the SI.

eDHFR = target: T1, eDHFR (Escherichia coli, UniProt P0ABQ4); assay: biochemical; conditions: for light-induced change in eDHFR inhibition (dark IC50 vs irradiated IC50): irradiation with λ1 = 365 nm;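 for all read-outs here: purified E. coli DHFR colorimetric assay, enzyme with NADPH 3 min then inhibitor (10^-12 to 10^-5 M) 7 min, rate ΔAbs/s relative to DMSO control (1% v/v), triplicates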
T1 construct: made in house; host or cells: E. cloni EXPRESS BL21 (DE3) cells (Lucigen), pT7-SC1 plasmid
Protocol: A 10 mM stock solution of the inhibitor in DMSO was divided into two parts. One half was thermally adapted with a heat gun for 1 min to obtain only the trans isomer.
The compounds were tested as eDHFR inhibitors via a colorimetric assay (Sigma-Aldrich, Catalog No. CS0340). Instead of the human DHFR protein provided in the kit, the in-house purified eDHFR was used. In a 3 mL cuvette, eDHFR (∼20 ng) was incubated with NADPH (60 μM, final) for 3 min, followed by an incubation with the inhibitor (from 10^–5 to 10^–12 M, final) for an additional 7 min. […] The concentration of DMSO in the final volume was 1% v/v for all enzymatic reactions. The measurements were performed in triplicates. For the control enzymatic reactions, eDHFR was incubated with NADPH and DMSO (1% v/v, final). […] The related control enzymatic reaction was also performed under continuous irradiation with λ1 = 390 nm light. Linear regression was performed in Microsoft Excel to calculate ΔAbs/s. % eDHFR activity was calculated as the ratio between ΔAbs/s for the sample and ΔAbs/s for the control reaction. GraphPadPrism 5.0 (GraphPad Software, Inc., version 5.00) was used for the determination of the IC50 of each inhibitor. Nonlinear regression was used for data fitting.

[2] = light or radiation study, after irradiation with λ1 = 365 nm, E. coli CS1562, 24 h, read-out: MIC Light
[3] = light or radiation study, after irradiation, E. coli CS1562, 24 h, read-out: MIC (µM) after irradiation
[4] = light or radiation study, before irradiation, E. coli CS1562, 24 h, read-out: MIC (µM) before irradiation
[5] = dark, E. coli CS1562, 24 h, read-out: MIC Dark
[6] = after irradiation, read-out: DHFR inhibition IC50 (nM) after irradiation
[7] = before irradiation, read-out: DHFR inhibition IC50 (nM) before irradiation
[8] = IC50 Dark, dark-adapted (thermally adapted, trans isomer)
[9] = irradiated with λ1 (1: continuous irradiation at 390 nm), read-out: IC50 Light
[10] = no considerable activity up to, dark-adapted and irradiated states
[11] = irradiated to PSS with λ1 (340 nm for 3, 365 nm for 6-15), read-out: IC50 Light

T1 sequence (P0ABQ4 whole entry): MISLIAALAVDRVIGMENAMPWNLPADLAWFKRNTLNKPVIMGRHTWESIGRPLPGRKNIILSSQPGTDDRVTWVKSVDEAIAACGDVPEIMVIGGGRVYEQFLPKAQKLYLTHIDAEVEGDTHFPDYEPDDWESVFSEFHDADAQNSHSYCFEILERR

SMILES | t1/2 DMSO (25 °C) [1] [h] | MIC (E. coli CS1562; [2]) [µM] | MIC (E. coli CS1562; [3]) [µM] | MIC (E. coli CS1562; [4]) [µM] | MIC (E. coli CS1562; [5]) [µM] | melting point | IC50 (eDHFR; [6]) [nM] | IC50 (eDHFR; [7]) [nM] | IC50 (eDHFR; [8]) [nM] | further results
COC(C)(C#Cc1cnc(N)nc1N)c1ccc(/N=N/c2ccc(C)c(C(=O)O)c2)cc1 (stereo not drawn) [Compound 12, (E)-5-{[4-(4-(2,4-Diaminopyrimidin-5-yl)-2-methoxybut-3-yn-2-yl)phenyl]diazenyl}-2-methylbenzoic acid] | > 24 | 20 | 20 | 20 | 20 | 221 °C (dec.) | 71 ± 18 | 13 ± 2.8 |  | light-induced change in eDHFR inhibition (dark IC50 vs irradiated IC50) (eDHFR): 5 fold
Nc1ncc(-c2ccc(/N=N/c3ccccc3)cc2)c(N)n1 [Compound 2, (E)-5-[4-(Phenyldiazenyl)phenyl]pyrimidine-2,4-diamine] | 27 |  |  |  |  | 199 to 201 °C | > 10000 | > 10000 | > 10000 | IC50 (eDHFR; [9]): > 10000 nM; IC50 (eDHFR; [10]): > 10000 nM
COC(C)(C#Cc1cnc(N)nc1N)c1ccc(/N=N/c2c(C)nn(C)c2C)cc1 (stereo not drawn) [Compound 9, (E)-5-(3-Methoxy-3-(4-((1,3,5-trimethyl-1H-pyrazol-4-yl)diazenyl)phenyl)but-1-yn-1-yl)pyrimidine-2,4-diamine] | > 24 | 80 | 80 | 80 | 80 | 162 to 164 °C | 640 ± 510 | 220 ± 60 |  | light-induced difference in antibacterial activity (dark MIC vs irradiated MIC) (E. coli CS1562; E. coli CS1562): did not display any light-dependent potency difference
COc1cc(Cc2cnc(N)nc2N)cc(OC)c1OC [TMP, trimethoprim, reference compound] |  |  |  |  |  |  |  |  |  | MIC (E. coli CS1562; CS1562, light or radiation study, 24 h): 1.3 µM; MIC (E. coli CS1562; CS1562, light or radiation study, 24 h, read-out: MIC (µM) before irradiation): 1.3 µM
COC(C)(C#Cc1cnc(N)nc1N)c1ccc(/N=N/c2ccc(Cl)c(C(=O)O)c2)cc1 (stereo not drawn) [Compound 13, (E)-2-Chloro-5-{[4-(4-(2,4-diaminopyrimidin-5-yl)-2-methoxybut-3-yn-2-yl)phenyl]diazenyl}benzoic acid] | > 24 | 80 | 80 | 40 | 40 | 212 °C (dec.) | 29 ± 8.6 | 28 ± 4.8 |  | light-induced change in eDHFR inhibition (dark IC50 vs irradiated IC50) (eDHFR): no difference in activity
COC(C)(C#Cc1cnc(N)nc1N)c1ccc(/N=N/c2ccc(C(=O)O)c(Cl)c2)cc1 (stereo not drawn) [Compound 15, (E)-2-Chloro-4-{[4-(4-(2,4-diaminopyrimidin-5-yl)-2-methoxybut-3-yn-2-yl)phenyl]diazenyl}benzoic acid] | > 24 | 20 | 20 | 40 | 40 | 245 °C (dec.) | 27 ± 3.7 |  | 52 ± 11 | light-induced difference in antibacterial activity (dark MIC vs irradiated MIC) (E. coli CS1562; E. coli CS1562): 2 fold; IC50 (eDHFR; DHFR inhibition IC50 (nM) before irradiation, before irradiation): 52 ± 11 nM; IC50 (eDHFR; [11]): 27 ± 3.7 nM; light-induced change in eDHFR inhibition (dark IC50 vs irradiated IC50) (eDHFR): 2 fold
COc1cc(Cc2cnc(N)nc2N)cc(OC)c1OCc1cc(Cl)c(/N=N/c2c(Cl)cccc2Cl)c(Cl)c1 [TCAT, tetra-ortho-chloroazobenzene trimethoprim, reference compound] |  |  |  |  |  |  | 3.3 ± 2.1 | 3.8 ± 1.4 |  | 
COC(C)(C#Cc1cnc(N)nc1N)c1ccc(/N=N/c2cccc(C(=O)O)c2)cc1 (stereo not drawn) [Compound 10, (E)-3-{[4-(4-(2,4-Diaminopyrimidin-5-yl)-2-methoxybut-3-yn-2-yl)phenyl]diazenyl}benzoic acid] | > 24 | 20 | 20 | 20 | 20 | 190 °C (dec.) |  |  | 24 | MIC / bacterial growth inhibition, same in both forms (E. coli CS1562; both before and after irradiation with λ1 = 365 nm, E. coli CS1562): 20 µM; IC50 (eDHFR; [11]): 57 nM
COc1ccc(/N=N/c2ccc(COc3c(OC)cc(Cc4cnc(N)nc4N)cc3OC)cc2)cc1 [PMAT, para-methoxyazobenzene trimethoprim, reference compound] |  |  |  |  |  |  |  |  | 2 ± 0.61 | IC50 (eDHFR; [11]): 2.5 ± 0.61 nM
Nc1ccnc(N)n1 [2,4-diaminopyrimidine, reference compound] |  |  |  |  |  |  |  |  |  | IC50 (eDHFR; fragment, no irradiation, read-out: IC50): 390000 ± 150000 nM
Nc1ncc(/N=N/c2ccccc2)c(N)n1 [Compound 1, (E)-5-(Phenyldiazenyl)pyrimidine-2,4-diamine] | 1.3 |  |  |  |  | > 250 °C | > 10000 | > 10000 | > 10000 | IC50 (eDHFR; [9]): > 10000 nM; IC50 (eDHFR; [10]): > 10000 nM
COc1cc(Cc2cnc(N)nc2N)cc(OC)c1OCc1cc(F)c(/N=N/c2c(F)cccc2F)c(F)c1 [TFAT, tetra-ortho-fluoroazobenzene trimethoprim, reference compound] |  |  |  |  |  |  | 1.7 ± 0.32 | 1.9 ± 0.61 |  | 
COC(C)(C#Cc1cnc(N)nc1N)c1ccc(/N=N/c2ccc(C(=O)O)c(C)c2)cc1 (stereo not drawn) [Compound 14, (E)-4-{[4-(4-(2,4-Diaminopyrimidin-5-yl)-2-methoxybut-3-yn-2-yl)phenyl]diazenyl}-2-methylbenzoic acid] | > 24 | 40 | 40 | 20 | 20 | 240 °C (dec.) | 37 ± 14 | 77 ± 26 |  | light-induced change in eDHFR inhibition (dark IC50 vs irradiated IC50) (eDHFR): 2 fold
Nc1ncc(C#Cc2cccc(/N=N/c3ccccc3)c2)c(N)n1 [Compound 5, (E)-5-{[3-(Phenyldiazenyl)phenyl]ethynyl}pyrimidine-2,4-diamine] | > 24 |  |  |  |  | 207 to 209 °C |  |  | 5300 | IC50 (eDHFR; [9]): 2600 nM
Nc1ncc(C#Cc2ccc(/N=N/c3ccccc3)cc2)c(N)n1 [Compound 4, (E)-5-{[4-(Phenyldiazenyl)phenyl]ethynyl}pyrimidine-2,4-diamine] | 8.6 |  |  |  |  |  | > 10000 | > 10000 | > 10000 | IC50 (eDHFR; [9]): > 10000 nM; IC50 (eDHFR; [10]): > 10000 nM
